Experimental data taken from US20060276464A1, “Diarylsulfone sulfonamides and use thereof” (Wyeth, priority 2005, published 2006).
pEC50, pIC50: −log10 of the molar value.

Legend:
SFRP-1 [1] = molecular target: T1, SFRP-1 (Homo sapiens, UniProt Q8N474); test: Cell-based assay for in vitro measurement of SFRP-1/SARP2 antagonist activity (U2OS cells co-transfected with 16x TCF-tk-Luciferase reporter, Wnt and hSFRP-1); conditions: for fold induction at 10 µM: U2OS, read-out: Fold Induction with SFRP-1, U2OS cells, single dose 10 μM, luciferase reporter, fold induction over SFRP-1 control;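 as to all read-outs here: U2OS cells co-transfected with a TCF-tk luciferase reporter, a Wnt vector, hSFRP-1 or empty vector and CMV-βgal, luciferase luminescence read in cell lysates alongside βgal activity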
T1 sequence (Q8N474 32-314): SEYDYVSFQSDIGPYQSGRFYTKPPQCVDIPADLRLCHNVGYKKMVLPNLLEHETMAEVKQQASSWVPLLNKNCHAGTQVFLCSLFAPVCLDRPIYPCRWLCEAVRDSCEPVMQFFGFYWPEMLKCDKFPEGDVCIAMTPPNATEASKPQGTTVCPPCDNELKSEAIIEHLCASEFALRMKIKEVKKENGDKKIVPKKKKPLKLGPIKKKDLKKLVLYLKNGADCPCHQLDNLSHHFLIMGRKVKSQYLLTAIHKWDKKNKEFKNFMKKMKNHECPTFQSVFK

SFRP-1 [2] = molecular target: T1, SFRP-1; test: Fluorescence polarization binding assay (competitive displacement of a probe compound from SFRP-1); conditions: fluorescence anisotropy, 45 nM SFRP-1, 20 nM probe;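 also: test compound competes with a fluorescent probe held by SFRP-1, seen as a drop in probe anisotropy after incubation in darkness, with anisotropy as function of rising compound dose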

Row | pEC50 (SFRP-1 [1]) | fold induction at 10 µM (SFRP-1 [1]) | pIC50 (SFRP-1 [2]) | SMILES
1 | 5.59 | 2.7 | 6.40 | CN(CCNS(=O)(=O)c1cc(S(=O)(=O)c2ccccc2)ccc1C(F)(F)F)S(=O)(=O)c1cccc(C(=O)O)c1 [Example 883, 3-({methyl[2-({[5-(phenylsulfonyl)-2-(trifluoromethyl)phenyl]sulfonyl}amino)ethyl]amino}sulfonyl)benzoic acid]
2 | 5.47 | 2.7 | 5.80 | CC(C)c1ccc(S(=O)(=O)c2ccc(F)cc2)cc1S(=O)(=O)NCCC1CCCNC1 (centres unmarked) [Example 884, 5-[(4-fluorophenyl)sulfonyl]-2-isopropyl-N-(2-piperidin-3-ylethyl)benzenesulfonamide]
3 | 5.68 | 2.7 | 6.40 | O=S(=O)(NC1CCN(Cc2nn[nH]n2)CC1)c1cc(S(=O)(=O)c2ccccc2)ccc1C(F)(F)F [Example 885, 5-(phenylsulfonyl)-N-[1-(2H-tetrazol-5-ylmethyl)piperidin-4-yl]-2-(trifluoromethyl)benzenesulfonamide]
4 | 5.88 | 2.7 | 6.82 | O=C(O)CCC(=O)N1CCC(NS(=O)(=O)c2cc(S(=O)(=O)c3ccccc3)ccc2C(F)(F)F)C1 (centres unmarked) [Example 886, 4-oxo-4-[3-({[5-(phenylsulfonyl)-2-(trifluoromethyl)phenyl]sulfonyl}amino)pyrrolidin-1-yl]butanoic acid]
5 | 5.75 | 2.3 | 5.52 | CN(CCNS(=O)(=O)c1cc(S(=O)(=O)c2ccccc2)ccc1C(F)(F)F)C(=O)N1CCN(C(=O)OC(C)(C)C)CC1 [Example 887, tert-butyl 4-({methyl[2-({[5-(phenylsulfonyl)-2-(trifluoromethyl)phenyl]sulfonyl}amino)ethyl]amino}carbonyl)piperazine-1-carboxylate]
6 | 5.75 | 2.1 | 6.05 | CN(CCNS(=O)(=O)c1cc(S(=O)(=O)c2ccccc2)ccc1C(F)(F)F)C(=O)NCC(=O)O [Example 888, N-({methyl[2-({[5-(phenylsulfonyl)-2-(trifluoromethyl)phenyl]sulfonyl}amino)ethyl]amino}carbonyl)glycine]
7 |  | 1.3 | 5.40 | O=C(O)CCNS(=O)(=O)c1cc(S(=O)(=O)c2ccccc2)ccc1C(F)(F)F [Example 889, N-{[5-(phenylsulfonyl)-2-(trifluoromethyl)phenyl]sulfonyl}-[…]-alanine]
8 |  | 1.8 | 6.15 | O=C(O)CCCNS(=O)(=O)c1cc(S(=O)(=O)c2ccccc2)ccc1C(F)(F)F [Example 893, 4-({[5-(phenylsulfonyl)-2-(trifluoromethyl)phenyl]sulfonyl}amino)butanoic acid]
9 | 6.06 | 2.9 | 6.72 | O=C(O)CCCC(=O)N1CCC(NS(=O)(=O)c2cc(S(=O)(=O)c3ccccc3)ccc2C(F)(F)F)C1 (centres unmarked) [Example 895, 5-oxo-5-[3-({[5-(phenylsulfonyl)-2-(trifluoromethyl)phenyl]sulfonyl}amino)pyrrolidin-1-yl]pentanoic acid]
10 | 6.17 | 2.9 | 6.52 | CC(C)(C)OC(=O)N1CCC(CNS(=O)(=O)c2cc(S(=O)(=O)c3ccccc3)ccc2C(F)(F)F)CC1 [Example 896, tert-butyl 4-[({[5-(phenylsulfonyl)-2-(trifluoromethyl)phenyl]sulfonyl}amino)methyl]piperidine-1-carboxylate]
11 | 5.87 | 2.7 | 6.30 | CN(CCNS(=O)(=O)c1cc(S(=O)(=O)c2ccccc2)ccc1C(F)(F)F)C(=O)CCC(=O)O [Example 897, 4-{methyl[2-({[5-(phenylsulfonyl)-2-(trifluoromethyl)phenyl]sulfonyl}amino)ethyl]amino}-4-oxobutanoic acid]
12 | 5.71 | 3.1 | 6.00 | CN(CCNS(=O)(=O)c1cc(S(=O)(=O)c2ccccc2)ccc1C(F)(F)F)C(=O)N1CCNCC1 [Example 898, N-methyl-N-[2-({[5-(phenylsulfonyl)-2-(trifluoromethyl)phenyl]sulfonyl}amino)ethyl]piperazine-1-carboxamide]
13 | 6.05 | 4.2 | 6.52 | O=S(=O)(NCC1CCNCC1)c1cc(S(=O)(=O)c2ccccc2)ccc1C(F)(F)F [Example 899, 5-(phenylsulfonyl)-N-(piperidin-4-ylmethyl)-2-(trifluoromethyl)benzenesulfonamide]
14 |  | 4.1 | 7.10 | O=S(=O)(NC1Cc2ccccc2C1O)c1cc(S(=O)(=O)c2ccccc2)ccc1C(F)(F)F (centres unmarked) [Example 900, N-(1-hydroxy-2,3-dihydro-1H-inden-2-yl)-5-(phenylsulfonyl)-2-(trifluoromethyl)benzenesulfonamide]
15 | 6.65 | 3.4 | 6.35 | CC(C)(C)OC(=O)N[C@H]1CC[C@H](NS(=O)(=O)c2cc(S(=O)(=O)c3ccccc3)ccc2C(F)(F)F)CC1 [Example 901, tert-butyl [trans-4-({[5-(phenylsulfonyl)-2-(trifluoromethyl)phenyl]sulfonyl}amino)cyclohexyl]carbamate]
16 | 6.20 | 3 | 6.74 | O=C(O)CCC(=O)N1CCC(CNS(=O)(=O)c2cc(S(=O)(=O)c3ccccc3)ccc2C(F)(F)F)CC1 [Example 902, 4-oxo-4-{4-[({[5-(phenylsulfonyl)-2-(trifluoromethyl)phenyl]sulfonyl}amino)methyl]piperidin-1-yl}butanoic acid]
17 | 6.10 | 3.5 | 7.15 | O=C(O)CCCC(=O)N1CCC(CNS(=O)(=O)c2cc(S(=O)(=O)c3ccccc3)ccc2C(F)(F)F)CC1 [Example 903, 5-oxo-5-{4-[({[5-(phenylsulfonyl)-2-(trifluoromethyl)phenyl]sulfonyl}amino)methyl]piperidin-1-yl}pentanoic acid]
18 | 6.15 | 3.5 | 7.22 | O=C(O)c1cccc(S(=O)(=O)N2CCC(CNS(=O)(=O)c3cc(S(=O)(=O)c4ccccc4)ccc3C(F)(F)F)CC2)c1 [Example 904, 3-({4-[({[5-(phenylsulfonyl)-2-(trifluoromethyl)phenyl]sulfonyl}amino)methyl]piperidin-1-yl}sulfonyl)benzoic acid]
19 | 5.44 | 1.5 | 5.59 | CN(CCO)CCNS(=O)(=O)c1cc(S(=O)(=O)c2ccccc2)ccc1C(F)(F)F [Example 905, N-{2-[(2-hydroxyethyl)(methyl)amino]ethyl}-5-(phenylsulfonyl)-2-(trifluoromethyl)benzenesulfonamide]
20 | 5.87 | 2.9 | 6.05 | COC(=O)CN(C)CCNS(=O)(=O)c1cc(S(=O)(=O)c2ccccc2)ccc1C(F)(F)F [Example 906, methyl N-methyl-N-[2-({[5-(phenylsulfonyl)-2-(trifluoromethyl)phenyl]sulfonyl}amino)ethyl]glycinate]
21 |  | 2.2 | 6.05 | CCOC(=O)CCN(C)CCNS(=O)(=O)c1cc(S(=O)(=O)c2ccccc2)ccc1C(F)(F)F [Example 907, ethyl N-methyl-N-[2-({[5-(phenylsulfonyl)-2-(trifluoromethyl)phenyl]sulfonyl}amino)ethyl]-β-alaninate]
22 | 5.59 | 2.3 | 6.00 | CCc1ccc(S(=O)(=O)c2ccccc2)cc1S(=O)(=O)NC1CCN(C(=O)OC(C)(C)C)CC1 [Example 909, tert-butyl 4-({[2-ethyl-5-(phenylsulfonyl)phenyl]sulfonyl}amino)piperidine-1-carboxylate]
23 | 5.62 | 1.9 | 5.40 | Cc1cc(C)c(S(=O)(=O)c2ccccc2)cc1S(=O)(=O)NC1CCN(C(=O)OC(C)(C)C)CC1 [Example 911, tert-butyl 4-({[2,4-dimethyl-5-(phenylsulfonyl)phenyl]sulfonyl}amino)piperidine-1-carboxylate]
24 | 6.00 | 2.4 | 5.68 | CC(C)c1ccc(S(=O)(=O)c2ccccc2)cc1S(=O)(=O)NC1CCN(C(=O)OC(C)(C)C)CC1 [Example 912, tert-butyl 4-({[2-isopropyl-5-(phenylsulfonyl)phenyl]sulfonyl}amino)piperidine-1-carboxylate]
25 | 5.15 | 3.1 | 5.52 | O=S(=O)(NCCC1CCCN1)c1cc(S(=O)(=O)c2ccccc2)ccc1C(F)(F)F (centres unmarked) [Example 913, 5-(phenylsulfonyl)-N-(2-pyrrolidin-2-ylethyl)-2-(trifluoromethyl)benzenesulfonamide]
26 | 6.27 | 4.5 | 7.10 | O=S(=O)(NC1CCN(S(=O)(=O)c2ccc(O)cc2)CC1)c1cc(S(=O)(=O)c2ccccc2)ccc1C(F)(F)F [Example 914, N-{1-[(4-hydroxyphenyl)sulfonyl]piperidin-4-yl}-5-(phenylsulfonyl)-2-(trifluoromethyl)benzenesulfonamide]
27 | 5.53 | 1.6 | 5.40 | O=C(O)CN1CCCC1CCNS(=O)(=O)c1cc(S(=O)(=O)c2ccccc2)ccc1C(F)(F)F (centres unmarked) [Example 918, {2-[2-({[5-(phenylsulfonyl)-2-(trifluoromethyl)phenyl]sulfonyl}amino)ethyl]pyrrolidin-1-yl}acetic acid]
